Data set [1] concerns the target T1, human calcitonin receptor (hCTR2) (Homo sapiens, UniProt P30988).
T1 construct: expressed in transfected cells
T1 sequence (P30988 25-474): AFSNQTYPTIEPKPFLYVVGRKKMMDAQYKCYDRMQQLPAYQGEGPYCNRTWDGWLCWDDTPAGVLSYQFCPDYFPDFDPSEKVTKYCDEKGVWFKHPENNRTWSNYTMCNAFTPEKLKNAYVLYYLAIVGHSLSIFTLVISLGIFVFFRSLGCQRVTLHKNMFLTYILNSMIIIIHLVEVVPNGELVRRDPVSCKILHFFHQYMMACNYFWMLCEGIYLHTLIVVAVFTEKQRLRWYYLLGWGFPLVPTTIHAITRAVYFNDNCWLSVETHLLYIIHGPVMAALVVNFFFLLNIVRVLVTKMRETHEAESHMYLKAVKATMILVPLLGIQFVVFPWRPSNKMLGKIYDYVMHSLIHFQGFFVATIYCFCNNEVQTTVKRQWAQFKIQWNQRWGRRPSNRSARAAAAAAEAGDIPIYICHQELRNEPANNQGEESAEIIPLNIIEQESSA
The data set can be described thus: hCTR2 assay: induction of cAMP (AlphaScreen cAMP Assay kit) in COS7 cells expressing hCTR2. It counts as cell-based. In outline:
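Peptide-induced cAMP in hCTR2-expressing COS7 cells, 15 min at 37° C with phosphodiesterase inhibitor IBMX (100 µM), detected by AlphaScreen; potency from 4PL curves.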

Data set [2] concerns the target T2, human amylin receptor 3 (hAMYR3) consisting of hCTR2 co-expressed with human Receptor Activity Modifying Protein 3 (hRAMP3) (Homo sapiens, UniProt O60896+P30988).
T2 construct: expressed in transfected cells
T2 sequence (P30988 25-474): T1 sequence (P30988 25-474)
T2 sequence (O60896 24-148 partner): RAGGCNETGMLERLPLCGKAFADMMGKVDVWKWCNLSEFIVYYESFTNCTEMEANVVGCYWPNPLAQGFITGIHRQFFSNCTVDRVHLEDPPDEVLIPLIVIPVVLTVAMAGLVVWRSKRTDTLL
Put plainly: hAMYR3 assay: induction of cAMP (AlphaScreen cAMP Assay kit) in COS7 cells expressing hAMYR3. It counts as cell-based. In outline:
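cAMP accumulation read by AlphaScreen in lysates of RAMP-naive COS7 cells stably transfected with hCTR2 plus hRAMP3. Cells exposed to peptide dilutions for 15 min, 37° C, with 100 µM IBMX; 4PL fitting gave EC50 and efficacy relative to pramlintide.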

Data set [3] can be described thus: Solubility assessment (turbidity absorbance at 325 nm). It counts as physicochemical. The conditions noted are these: stock 2 mg/ml diluted 1:1, ambient temperature (typically 25°C), n=1; for Solubility, Acetate buffer pH 4: 100 mM acetate buffer pH 4.0; for Solubility, Acetate buffer pH 5: 100 mM acetate buffer pH 5.0; for Solubility, Histidine buffer pH 6: 100 mM histidine buffer pH 6.0; for Solubility, Histidine buffer pH 7: 100 mM histidine buffer pH 7.0; for Solubility, Phosphate buffer pH 6: 100 mM phosphate buffer pH 6.0; for Solubility, Phosphate buffer pH 7: 100 mM phosphate buffer pH 7.0; for Solubility, Phosphate buffer pH 7.5: 100 mM phosphate buffer pH7.5. In outline: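 Turbidimetric screen across pH 4.0–7.5 in 100 mM acetate, histidine and phosphate buffers. A 2 mg/ml peptide stock (pH 2.5) was diluted 1:1 into each, then A325 measured at ambient temperature; values ≤ 0.02 AU denoted solubility of 1 mg/ml or more.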

The mark [4] stands for this setting: cAMP induction in COS7 cells expressing hCTR2, average of a minimum of 3 determinations, read-out: hCTR2 EC50.
Setting [5] is: cAMP induction in COS7 cells expressing hAMYR3, average of a minimum of 3 determinations, read-out: hAMY R3 EC50.

The values below come from EP3046573B1, “AMYLIN ANALOGUES” (Zealand Pharma A/S, priority 2013, dated 2015).

Where two headings read alike, the source gives them in different places. Numbered stars: 1 amine (or outer) side, 2 acyl side, 3 side chain; on linkers, the order of the positions; unused ones are H or OH. Bridge positions count the residues as written; N and C are the ends. Square brackets hold non-standard residues; d marks the D form. Peptide text beside a SMILES is read from it. * marks the point of attachment. C20 diacid = O=C(O)CCCCCCCCCCCCCCCCCCC(=O)*; Pro(4R-NH2) = N[C@H]1CN[C@H](C(=O)O)C1; γGlu = O=C(O)[C@H](CCC(=O)[*:2])N[*:1]; NMeI = CC[C@H](C)[C@H](NC)C(=O)O; Pip = O=C(O)[C@@H]1CCCCN1; Aze = O=C(O)[C@@H]1CCN1; Sar = CNCC(=O)O

Take `CC[C@H](C)[C@@H](C(=O)N[C@@H](CC(C)C)C(=O)N[C@@H](CO)C(=O)N[C@@H](CO)C(=O)N[C@H](C(=O)N[C@@H](CC(N)=O)C(=O)N[C@H](C(=O)NCC(=O)N[C@@H](CO)C(=O)N[C@@H](CC(N)=O)C(=O)N[C@H](C(=O)N1CC[C@H]1C(N)=O)[C@@H](C)O)C(C)C)[C@@H](C)O)N(C)C(=O)CN(C)C(=O)[C@H](Cc1ccccc1)NC(=O)[C@H](CC(N)=O)NC(=O)[C@H](CC(N)=O)NC(=O)[C@H](CO)NC(=O)[C@H](CO)NC(=O)[C@H](CCCNC(=N)N)NC(=O)[C@H](Cc1c[nH]cn1)NC(=O)[C@H](CC(C)C)NC(=O)[C@H](Cc1ccccc1)NC(=O)[C@H](CCC(=O)O)NC(=O)[C@H](C)NC(=O)[C@H](CC(C)C)NC(=O)[C@H](CCCNC(=N)N)NC(=O)[C@H](CCC(N)=O)NC(=O)[C@@H](NC(=O)[C@H](C)NC(=O)[C@@H]1CSSC[C@H](NC(=O)[C@H](CCCNC(=N)N)NC(=O)CC[C@H](NC(=O)CCCCCCCCCCCCCCCCCCC(=O)O)C(=O)O)C(=O)N[C@@H](CC(N)=O)C(=O)N[C@@H]([C@@H](C)O)C(=O)N[C@@H](C)C(=O)N[C@@H]([C@@H](C)O)C(=O)N1)[C@@H](C)O` [Compound 108, [19CD]-isoGlu-RC()NTATC()ATQRLAEFLHRSSNNF-Gly(Me)-Ile(Me)-LSSTNVGSNT-Aze-NH2] ({C20 diacid-γGlu}-RCNTATCATQRLAEFLHRSSNNF[Sar][NMeI]LSSTNVGSNT[Aze]-NH2; disulfide 2-7): in data set [1] (setting [4]), the EC50 amounted to 320 pM. In data set [2] (setting [5]), the EC50 was 670 pM. Besides, in data set [3], the “Solubility, Acetate buffer pH 4” value is listed as “SS (SS indicates solubility ≥ 1mg/ml)”; the “Solubility, Acetate buffer pH 5” value is on record as “SS (SS indicates solubility ≥ 1mg/ml)”; the “Solubility, Histidine buffer pH 6” value is “SS (SS indicates solubility ≥ 1mg/ml)”; the “Solubility, Histidine buffer pH 7” value is listed as “SS (SS indicates solubility ≥ 1mg/ml)”. Besides, in data set [3], the “Solubility, Phosphate buffer pH 6” value is “SS (SS indicates solubility ≥ 1mg/ml)”; the “Solubility, Phosphate buffer pH 7” value was “SS (SS indicates solubility ≥ 1mg/ml)”; the “Solubility, Phosphate buffer pH 7.5” value is listed as “SS (SS indicates solubility ≥ 1mg/ml)”.
Take `CC[C@H](C)[C@@H](C(=O)N[C@@H](CC(C)C)C(=O)N[C@@H](CO)C(=O)N[C@@H](CO)C(=O)N[C@H](C(=O)N[C@@H](CC(N)=O)C(=O)N[C@H](C(=O)NCC(=O)N[C@@H](CO)C(=O)N[C@@H](CC(N)=O)C(=O)N[C@H](C(=O)N1CCCC[C@H]1C(N)=O)[C@@H](C)O)C(C)C)[C@@H](C)O)N(C)C(=O)[C@H](C)NC(=O)CN(C)C(=O)[C@H](Cc1ccccc1)NC(=O)[C@H](CC(N)=O)NC(=O)[C@H](CC(N)=O)NC(=O)[C@H](CO)NC(=O)[C@H](CO)NC(=O)[C@H](CCCNC(=N)N)NC(=O)[C@H](Cc1c[nH]cn1)NC(=O)[C@H](CC(C)C)NC(=O)[C@H](Cc1ccccc1)NC(=O)[C@H](CCC(=O)O)NC(=O)[C@H](C)NC(=O)[C@H](CC(C)C)NC(=O)[C@H](CCCNC(=N)N)NC(=O)[C@H](CCC(N)=O)NC(=O)[C@@H](NC(=O)[C@H](C)NC(=O)[C@@H]1CSSC[C@H](NC(=O)[C@H](CCCNC(=N)N)NC(=O)CC[C@H](NC(=O)CCCCCCCCCCCCCCCCCCC(=O)O)C(=O)O)C(=O)N[C@@H](CC(N)=O)C(=O)N[C@@H]([C@@H](C)O)C(=O)N[C@@H](C)C(=O)N[C@@H]([C@@H](C)O)C(=O)N1)[C@@H](C)O` [Compound 109, [19CD]-isoGlu-RC()NTATC()ATQRLAEFLHRSSNNF-Gly(Me)-A-Ile(Me)-LSSTNVGSNT-Pip-NH2] ({C20 diacid-γGlu}-RCNTATCATQRLAEFLHRSSNNF[Sar]A[NMeI]LSSTNVGSNT[Pip]-NH2; disulfide 2-7): the EC50 in data set [1] was determined as 300 pM. For the same compound, in data set [2], the EC50 was 520 pM. Moreover, in data set [3], the “Solubility, Acetate buffer pH 4” value was “SS (SS indicates solubility ≥ 1mg/ml)”; the “Solubility, Acetate buffer pH 5” value is on record as “SS (SS indicates solubility ≥ 1mg/ml)”; the “Solubility, Histidine buffer pH 6” value was “SS (SS indicates solubility ≥ 1mg/ml)”; the “Solubility, Histidine buffer pH 7” value is reported as “SS (SS indicates solubility ≥ 1mg/ml)”. For the same compound, in data set [3], the “Solubility, Phosphate buffer pH 6” value is listed as “II (II indicates solubility ≤ 1 mg/ml)”; the “Solubility, Phosphate buffer pH 7” value is recorded as “SS (SS indicates solubility ≥ 1mg/ml)”; the “Solubility, Phosphate buffer pH 7.5” value is on record as “SS (SS indicates solubility ≥ 1mg/ml)”.
Regarding `CC[C@H](C)[C@@H](C(=O)N[C@@H](CC(C)C)C(=O)N[C@@H](CO)C(=O)N[C@@H](CO)C(=O)N[C@H](C(=O)N[C@@H](CC(N)=O)C(=O)N[C@H](C(=O)NCC(=O)N[C@@H](CO)C(=O)N[C@@H](CC(N)=O)C(=O)N[C@H](C(=O)N1C[C@H](N)C[C@H]1C(N)=O)[C@@H](C)O)C(C)C)[C@@H](C)O)N(C)C(=O)CN(C)C(=O)[C@H](Cc1ccccc1)NC(=O)[C@H](CC(N)=O)NC(=O)[C@H](CC(N)=O)NC(=O)[C@H](CO)NC(=O)[C@H](CO)NC(=O)[C@H](CCCNC(=N)N)NC(=O)[C@H](Cc1c[nH]cn1)NC(=O)[C@H](CC(C)C)NC(=O)[C@H](Cc1ccccc1)NC(=O)[C@H](CCC(=O)O)NC(=O)[C@H](C)NC(=O)[C@H](CC(C)C)NC(=O)[C@H](CCCNC(=N)N)NC(=O)[C@H](CCC(N)=O)NC(=O)[C@@H](NC(=O)[C@H](C)NC(=O)[C@@H]1CSSC[C@H](NC(=O)[C@H](CCCNC(=N)N)NC(=O)CC[C@H](NC(=O)CCCCCCCCCCCCCCCCCCC(=O)O)C(=O)O)C(=O)N[C@@H](CC(N)=O)C(=O)N[C@@H]([C@@H](C)O)C(=O)N[C@@H](C)C(=O)N[C@@H]([C@@H](C)O)C(=O)N1)[C@@H](C)O` [Compound 111, [19CD]-isoGlu-RC()NTATC()ATQRLAEFLHRSSNNF-Gly(Me)-Ile(Me)-LSSTNVGSNT-Apr-NH2] ({C20 diacid-γGlu}-RCNTATCATQRLAEFLHRSSNNF[Sar][NMeI]LSSTNVGSNT[Pro(4R-NH2)]-NH2; disulfide 2-7), the EC50 in data set [1] (setting [4]) was determined as 140 pM. In addition, the EC50 in data set [2] (setting [5]) amounted to 210 pM. Moreover, in data set [3], the “Solubility, Acetate buffer pH 4” value is reported as “SS (SS indicates solubility ≥ 1mg/ml)”; the “Solubility, Acetate buffer pH 5” value is “SS (SS indicates solubility ≥ 1mg/ml)”; the “Solubility, Histidine buffer pH 6” value is listed as “SS (SS indicates solubility ≥ 1mg/ml)”; the “Solubility, Histidine buffer pH 7” value was “SS (SS indicates solubility ≥ 1mg/ml)”. In addition, in data set [3], the “Solubility, Phosphate buffer pH 6” value is “SS (SS indicates solubility ≥ 1mg/ml)”; the “Solubility, Phosphate buffer pH 7” value is given as “SS (SS indicates solubility ≥ 1mg/ml)”; the “Solubility, Phosphate buffer pH 7.5” value was “SS (SS indicates solubility ≥ 1mg/ml)”.
